This passage reports inhibition, delta Tm Staurosporine positive control and ΔTm results from ChEMBL document CHEMBL5303766, “Data for DCP probe FHT-2344” (2022).

Test [1] deals with 5-hydroxytryptamine receptor 2B (Homo sapiens, UniProt P41595). Particulars: Compound concentration 10.0 uM.
The target of test [2] is SRSF protein kinase 1 (Homo sapiens) (UniProt Q96SB4). The experiment in a line: SRPK1 SGC Tm panel (DSF). Particulars: for ΔTm: Compound concentration 10.0 uM.
Test [3] addresses Homeodomain-interacting protein kinase 2 (Homo sapiens) (UniProt Q9H2X6). The experiment in a line: HIPK2 SGC Tm panel (DSF). Particulars: for ΔTm: Compound concentration 10.0 uM.
For test [4], the target named is T1, Peripheral plasma membrane protein CASK (Homo sapiens) (UniProt O14936).
T1 sequence (whole entry): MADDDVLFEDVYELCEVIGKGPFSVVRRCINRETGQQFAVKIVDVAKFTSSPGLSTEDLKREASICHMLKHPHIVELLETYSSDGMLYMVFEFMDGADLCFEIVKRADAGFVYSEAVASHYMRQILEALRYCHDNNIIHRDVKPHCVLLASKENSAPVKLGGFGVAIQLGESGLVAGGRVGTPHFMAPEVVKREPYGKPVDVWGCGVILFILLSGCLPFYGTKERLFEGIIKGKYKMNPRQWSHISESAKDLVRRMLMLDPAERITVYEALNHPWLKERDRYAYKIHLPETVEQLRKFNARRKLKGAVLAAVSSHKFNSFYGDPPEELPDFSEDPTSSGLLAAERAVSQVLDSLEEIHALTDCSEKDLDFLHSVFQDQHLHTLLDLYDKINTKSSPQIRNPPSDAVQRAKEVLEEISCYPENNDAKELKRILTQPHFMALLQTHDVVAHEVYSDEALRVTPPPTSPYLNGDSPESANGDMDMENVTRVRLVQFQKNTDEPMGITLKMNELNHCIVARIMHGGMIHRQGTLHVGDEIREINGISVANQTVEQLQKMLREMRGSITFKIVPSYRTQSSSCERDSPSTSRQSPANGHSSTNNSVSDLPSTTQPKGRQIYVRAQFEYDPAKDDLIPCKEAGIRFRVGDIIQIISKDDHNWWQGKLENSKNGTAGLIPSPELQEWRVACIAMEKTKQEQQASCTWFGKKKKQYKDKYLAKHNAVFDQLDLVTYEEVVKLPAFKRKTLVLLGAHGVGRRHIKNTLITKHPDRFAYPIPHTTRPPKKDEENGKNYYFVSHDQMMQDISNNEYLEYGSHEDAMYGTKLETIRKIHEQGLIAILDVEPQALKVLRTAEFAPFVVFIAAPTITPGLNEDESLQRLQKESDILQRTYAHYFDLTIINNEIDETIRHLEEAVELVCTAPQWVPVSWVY
The experiment in a line: CASK SGC Tm panel (DSF). Particulars: for ΔTm: Compound concentration 10.0 uM.

The target in test [5] is T2, Dual specificity mitogen-activated protein kinase kinase 4 (Homo sapiens) (UniProt P45985).
T2 sequence (whole entry): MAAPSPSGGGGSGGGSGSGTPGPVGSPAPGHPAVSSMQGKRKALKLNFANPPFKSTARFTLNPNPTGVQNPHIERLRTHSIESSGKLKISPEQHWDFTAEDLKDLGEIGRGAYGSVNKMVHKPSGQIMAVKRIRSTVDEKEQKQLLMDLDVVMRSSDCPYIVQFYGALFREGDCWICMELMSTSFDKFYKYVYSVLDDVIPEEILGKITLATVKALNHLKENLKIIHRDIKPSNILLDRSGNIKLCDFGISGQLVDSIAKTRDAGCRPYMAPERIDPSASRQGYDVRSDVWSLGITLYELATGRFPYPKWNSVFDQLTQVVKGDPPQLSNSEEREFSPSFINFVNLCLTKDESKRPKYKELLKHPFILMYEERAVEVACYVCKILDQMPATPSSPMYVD
The experiment in a line: MAP2K4 SGC Tm panel (DSF). Particulars: for ΔTm: Compound concentration 10.0 uM.

Test [6] has as its target Serine/threonine-protein kinase PAK 4 (Homo sapiens) (UniProt O96013). The test can be described thus: PAK4 SGC Tm panel (DSF). Particulars: for ΔTm: Compound concentration 10.0 uM.
Test [7] has as its target GABA-A receptor; anion channel (Rattus norvegicus) (UniProt O09028+P15431+P18506+P18508+P19969+P20236+P23574+P23576+P28471+P28473+P30191+P62813+P63079+P63138+Q91ZM7+Q9ES14). Particulars: Compound concentration 10.0 uM.
The target of test [8] is Fibroblast growth factor receptor 1 (Homo sapiens) (UniProt P11362). The test can be described thus: FGFR1 SGC Tm panel (DSF). Particulars: for ΔTm: Compound concentration 10.0 uM.
Test [9] has as its target Serine/threonine-protein kinase 38-like (Homo sapiens) (UniProt Q9Y2H1). The test can be described thus: STK38L SGC Tm panel (DSF). Particulars: for ΔTm: Compound concentration 10.0 uM.
In test [10] the target is Histamine H3 receptor (Homo sapiens) (UniProt Q9Y5N1). Particulars: Compound concentration 10.0 uM.
The target in test [11] is Ephrin type-A receptor 7 (Homo sapiens) (UniProt Q15375). The test can be described thus: EPHA7 SGC Tm panel (DSF). Particulars: for ΔTm: Compound concentration 10.0 uM.
Test [12] has as its target SRSF protein kinase 3 (Homo sapiens) (UniProt Q9UPE1). The test can be described thus: MSSK1 SGC Tm panel (DSF). Particulars: for ΔTm: Compound concentration 10.0 uM.

Chain of Serine/threonine-protein kinase PAK 4 (Homo sapiens) (O96013 whole entry, looked up): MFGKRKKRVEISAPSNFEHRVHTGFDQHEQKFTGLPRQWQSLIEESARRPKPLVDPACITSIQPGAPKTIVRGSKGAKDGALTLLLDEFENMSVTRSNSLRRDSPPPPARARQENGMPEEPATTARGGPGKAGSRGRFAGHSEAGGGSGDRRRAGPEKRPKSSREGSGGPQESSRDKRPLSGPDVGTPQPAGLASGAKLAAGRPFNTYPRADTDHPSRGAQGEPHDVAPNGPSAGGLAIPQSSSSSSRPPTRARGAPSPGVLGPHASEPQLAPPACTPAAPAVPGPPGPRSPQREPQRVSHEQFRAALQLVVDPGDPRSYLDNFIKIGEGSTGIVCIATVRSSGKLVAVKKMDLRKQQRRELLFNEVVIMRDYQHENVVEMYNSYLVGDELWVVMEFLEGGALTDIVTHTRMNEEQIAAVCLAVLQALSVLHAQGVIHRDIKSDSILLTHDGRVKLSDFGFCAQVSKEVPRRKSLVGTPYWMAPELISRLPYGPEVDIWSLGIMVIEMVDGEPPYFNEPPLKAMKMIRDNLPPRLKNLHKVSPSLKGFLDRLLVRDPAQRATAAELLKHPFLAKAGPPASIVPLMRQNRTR
Chain of Fibroblast growth factor receptor 1 (Homo sapiens) (P11362 22-822 limits assumed): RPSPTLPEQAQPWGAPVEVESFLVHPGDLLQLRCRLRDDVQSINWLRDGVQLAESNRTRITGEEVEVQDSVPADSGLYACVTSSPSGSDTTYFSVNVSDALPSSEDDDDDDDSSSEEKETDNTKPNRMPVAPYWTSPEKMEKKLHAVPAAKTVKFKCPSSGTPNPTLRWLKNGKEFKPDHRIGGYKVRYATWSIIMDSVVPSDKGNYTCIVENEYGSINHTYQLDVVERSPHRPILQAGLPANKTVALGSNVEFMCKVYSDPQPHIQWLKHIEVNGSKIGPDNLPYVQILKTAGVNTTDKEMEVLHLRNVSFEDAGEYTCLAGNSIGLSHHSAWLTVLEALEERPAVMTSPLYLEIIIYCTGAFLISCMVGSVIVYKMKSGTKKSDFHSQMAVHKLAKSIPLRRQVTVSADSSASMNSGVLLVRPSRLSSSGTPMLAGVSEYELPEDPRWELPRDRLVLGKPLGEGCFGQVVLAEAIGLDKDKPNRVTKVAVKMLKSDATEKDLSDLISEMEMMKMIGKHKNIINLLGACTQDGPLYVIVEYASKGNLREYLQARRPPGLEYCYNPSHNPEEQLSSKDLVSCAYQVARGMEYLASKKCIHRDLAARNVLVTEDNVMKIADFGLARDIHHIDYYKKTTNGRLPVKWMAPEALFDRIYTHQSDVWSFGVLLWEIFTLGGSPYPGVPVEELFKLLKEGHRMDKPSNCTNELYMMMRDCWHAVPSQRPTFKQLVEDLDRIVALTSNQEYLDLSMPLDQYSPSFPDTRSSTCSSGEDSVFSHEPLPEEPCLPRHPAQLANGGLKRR
Chain of Homeodomain-interacting protein kinase 2 (Homo sapiens) (Q9H2X6 whole entry, looked up): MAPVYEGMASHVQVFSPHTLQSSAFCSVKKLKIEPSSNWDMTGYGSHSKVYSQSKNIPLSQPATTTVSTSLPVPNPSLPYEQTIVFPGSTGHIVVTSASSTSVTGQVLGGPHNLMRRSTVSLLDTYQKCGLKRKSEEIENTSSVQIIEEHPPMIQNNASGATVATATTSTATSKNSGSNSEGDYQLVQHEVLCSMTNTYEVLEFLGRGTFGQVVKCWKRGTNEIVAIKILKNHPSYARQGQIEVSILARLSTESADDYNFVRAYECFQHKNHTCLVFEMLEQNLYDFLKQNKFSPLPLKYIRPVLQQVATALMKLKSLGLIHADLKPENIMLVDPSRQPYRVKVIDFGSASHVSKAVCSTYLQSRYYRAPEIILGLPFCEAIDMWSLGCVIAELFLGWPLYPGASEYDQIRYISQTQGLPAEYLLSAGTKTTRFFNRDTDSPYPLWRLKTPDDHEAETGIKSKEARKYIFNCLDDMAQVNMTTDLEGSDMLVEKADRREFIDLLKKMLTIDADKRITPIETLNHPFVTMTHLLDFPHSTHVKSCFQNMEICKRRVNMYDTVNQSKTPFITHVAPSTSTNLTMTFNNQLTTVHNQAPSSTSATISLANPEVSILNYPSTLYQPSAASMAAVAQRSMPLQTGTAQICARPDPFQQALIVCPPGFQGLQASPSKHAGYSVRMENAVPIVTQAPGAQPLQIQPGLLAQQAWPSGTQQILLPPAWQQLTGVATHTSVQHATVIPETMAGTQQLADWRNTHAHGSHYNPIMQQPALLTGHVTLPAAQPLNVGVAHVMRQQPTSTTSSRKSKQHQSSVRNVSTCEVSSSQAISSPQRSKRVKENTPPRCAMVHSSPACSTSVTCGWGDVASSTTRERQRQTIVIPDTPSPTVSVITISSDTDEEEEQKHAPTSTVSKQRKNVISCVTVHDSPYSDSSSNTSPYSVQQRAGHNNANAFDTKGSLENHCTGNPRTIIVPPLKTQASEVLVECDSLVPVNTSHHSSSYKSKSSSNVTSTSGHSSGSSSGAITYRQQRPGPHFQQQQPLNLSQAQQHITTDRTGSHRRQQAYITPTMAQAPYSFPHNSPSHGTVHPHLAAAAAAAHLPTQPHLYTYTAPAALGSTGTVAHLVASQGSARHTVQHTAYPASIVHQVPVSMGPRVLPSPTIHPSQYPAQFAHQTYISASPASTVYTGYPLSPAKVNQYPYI
Chain of Ephrin type-A receptor 7 (Homo sapiens) (Q15375 28-998 limits assumed): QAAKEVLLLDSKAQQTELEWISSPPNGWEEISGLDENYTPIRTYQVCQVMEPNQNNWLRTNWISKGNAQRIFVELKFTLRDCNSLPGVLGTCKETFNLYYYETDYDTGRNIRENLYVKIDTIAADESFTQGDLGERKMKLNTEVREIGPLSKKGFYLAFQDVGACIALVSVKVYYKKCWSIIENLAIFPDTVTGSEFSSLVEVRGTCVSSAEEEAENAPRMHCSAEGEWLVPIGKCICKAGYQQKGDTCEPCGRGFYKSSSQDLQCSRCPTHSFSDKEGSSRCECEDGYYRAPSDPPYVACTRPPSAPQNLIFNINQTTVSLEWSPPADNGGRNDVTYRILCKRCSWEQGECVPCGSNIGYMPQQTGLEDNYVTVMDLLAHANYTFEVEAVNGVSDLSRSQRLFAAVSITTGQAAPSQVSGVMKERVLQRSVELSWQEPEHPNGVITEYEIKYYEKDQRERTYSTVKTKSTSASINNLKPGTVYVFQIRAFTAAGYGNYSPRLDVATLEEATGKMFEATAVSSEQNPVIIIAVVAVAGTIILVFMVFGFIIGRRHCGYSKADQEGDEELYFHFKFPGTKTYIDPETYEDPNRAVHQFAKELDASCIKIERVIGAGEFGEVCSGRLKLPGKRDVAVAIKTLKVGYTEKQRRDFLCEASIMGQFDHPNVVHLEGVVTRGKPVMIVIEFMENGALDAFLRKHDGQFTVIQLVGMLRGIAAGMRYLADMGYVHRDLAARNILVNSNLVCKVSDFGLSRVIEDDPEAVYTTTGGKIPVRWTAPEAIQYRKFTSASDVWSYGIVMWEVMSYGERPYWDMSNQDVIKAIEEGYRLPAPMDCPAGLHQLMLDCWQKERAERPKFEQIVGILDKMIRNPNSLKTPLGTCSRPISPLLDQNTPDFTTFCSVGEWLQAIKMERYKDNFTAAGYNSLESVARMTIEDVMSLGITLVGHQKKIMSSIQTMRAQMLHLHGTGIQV
Chain of SRSF protein kinase 1 (Homo sapiens) (Q96SB4 whole entry): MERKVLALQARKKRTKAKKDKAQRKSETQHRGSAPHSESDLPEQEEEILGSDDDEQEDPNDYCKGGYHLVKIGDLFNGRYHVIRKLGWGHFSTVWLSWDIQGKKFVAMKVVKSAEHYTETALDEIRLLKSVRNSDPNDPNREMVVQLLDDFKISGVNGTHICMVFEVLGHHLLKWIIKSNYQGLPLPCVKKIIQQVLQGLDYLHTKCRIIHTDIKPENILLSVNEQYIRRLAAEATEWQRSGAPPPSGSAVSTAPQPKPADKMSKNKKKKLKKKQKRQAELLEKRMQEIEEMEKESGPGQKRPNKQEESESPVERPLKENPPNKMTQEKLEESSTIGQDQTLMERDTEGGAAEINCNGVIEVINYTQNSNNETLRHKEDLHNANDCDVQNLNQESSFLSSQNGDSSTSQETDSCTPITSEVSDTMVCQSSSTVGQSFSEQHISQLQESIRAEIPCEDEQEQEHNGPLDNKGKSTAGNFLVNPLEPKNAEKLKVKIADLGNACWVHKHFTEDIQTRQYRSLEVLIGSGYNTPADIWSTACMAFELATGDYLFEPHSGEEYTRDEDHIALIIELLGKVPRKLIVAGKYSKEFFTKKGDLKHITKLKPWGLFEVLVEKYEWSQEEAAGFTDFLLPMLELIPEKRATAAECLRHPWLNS
Chain of Serine/threonine-protein kinase 38-like (Homo sapiens) (Q9Y2H1 2-464 limits assumed): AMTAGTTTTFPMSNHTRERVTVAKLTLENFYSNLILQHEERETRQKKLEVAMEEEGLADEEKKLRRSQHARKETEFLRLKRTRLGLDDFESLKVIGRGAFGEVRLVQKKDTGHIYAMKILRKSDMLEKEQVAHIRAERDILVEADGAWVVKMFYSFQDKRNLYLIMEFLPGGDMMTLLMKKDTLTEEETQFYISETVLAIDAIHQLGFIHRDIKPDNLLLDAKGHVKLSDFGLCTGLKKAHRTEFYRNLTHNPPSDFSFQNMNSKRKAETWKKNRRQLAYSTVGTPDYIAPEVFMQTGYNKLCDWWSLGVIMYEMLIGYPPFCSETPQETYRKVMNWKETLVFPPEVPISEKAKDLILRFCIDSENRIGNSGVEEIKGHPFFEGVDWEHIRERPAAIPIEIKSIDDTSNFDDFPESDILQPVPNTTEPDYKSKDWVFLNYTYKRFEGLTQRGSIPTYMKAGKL

As to `COC[C@H](NC(=O)c1ccn(S(C)(=O)=O)c1)C(=O)Nc1nc(-c2cccc(-c3ccn(C)n3)c2)cs1`, the inhibition was 48.2% in test [1], 16% in [7] and 7.45% in [10]. Besides, the delta Tm Staurosporine positive control was found to be 7.14 in test [2]; 6.38 in test [3]; 4.91 in test [4]; 10.8 in test [5]; 13.4 in test [6]; 5.65 in test [8]. In addition, the delta Tm Staurosporine positive control in [9] came to 10.8; in [11] it was 11.5; in test [12] it was 3.67. Besides, the ΔTm was 0.728 in test [2]; 0.234 in [3]; 0.501 in test [4]; 0.427 in test [5]; -0.0385 in [6]; -0.0579 in test [8]. The ΔTm was 0.451 in test [9], 0.976 in test [11] and 0.376 in test [12].
On to `C[C@H](NC(=O)c1cn(C2(C#N)CC2)cn1)C(=O)Nc1nc(-c2cccc(-c3ccn(C)n3)c2)cs1`, for which the inhibition is 86.8% in test [1], 31.5% in test [7] and 0.34% in test [10]. The delta Tm Staurosporine positive control was 7.14 in test [2]; 6.38 in [3]; 4.91 in test [4]; 10.8 in [5]; 13.4 in test [6]; 5.65 in test [8]. Moreover, the delta Tm Staurosporine positive control was 10.8 in test [9], 11.5 in [11] and 3.67 in test [12]. Also, the ΔTm was 0.0203 in test [2]; 0.207 in test [3]; 0.617 in [4]; 0.342 in test [5]; -0.0631 in [6]; -0.166 in [8]. Also, the ΔTm in test [9] is 0.237; in [11], 1.13; in [12] it was 0.0986.

For orientation: inhibition means the percentage by which the read-out fell short of the control.
